These results are taken from paper PMC5790502, “The anti-rheumatic drug, leflunomide, synergizes with MEK inhibition to suppress melanoma growth” (Oncotarget, 2017).

By IC50 is commonly meant the concentration that inhibits the measured activity by half.

Test [1] deals with A375 melanoma cells. In words: BrdU proliferation assay. The class given is cell-based, human. The settings on record: increasing concentrations of leflunomide, 72 hours. On the procedure: A375 melanoma cells were seeded in 12-well plates at a density of 10,000 cells and grown on gelatin-coated coverslips. After 24 hours leflunomide was added to cells at 12.5, 25 or 50 μM (or a vehicle control) for 72 hours. Cells were pulsed for 2 hours with BrdU (Sigma-Aldrich) at a final working concentration of 10 μM. Cells were permeabilised in 2N-HCL + 0.5% Triton X-100. Primary BrdU antibody diluted 1:100 in 1% goat serum was applied and incubated overnight at 4°C followed by Alexa Fluor-488 anti-mouse secondary antibody Cells were counterstained with DAPI. Cells were mounted onto slides using hydromount and examined under a Zeiss AxioPlan 2ie widefield microscope with an AxioCam HRm CCD camera. Images were analyzed using Image J software.

Test [2] has as its system M202 melanoma cells. In words: Cell viability assay (CellTiter-Glo). Format: cell-based. The settings on record: Homo sapiens, 72 hours treatment. On the procedure:
(§1) Cells that had been seeded 24 hours earlier on poly-L-lysine coated 96-well plates (Sigma-Aldrich) to subconfluency, were treated with drugs at the indicated concentrations for 72 hours. Cytochalasin D (Sigma Aldrich) was used as a positive control. All conditions were repeated in triplicate. Cell viability was determined on day 5 using the CellTiter-Glo Luminescence assay (Promega), according to the manufacturer’s instructions. Luminescence from the plate was read on a BMG LabTech Omega Series plate reader (data analyzed using OMEGA software). Cell viability was calculated as a percentage of the mean vehicle control.
(§2) For pharmacological analysis, IC50 values were generated using Prism Graphpad software (Graphpad Software, Inc.) and calculated using a nonlinear regression model. Combinatorial drug synergy was assessed by determination of combination index (CI), which was calculated using CalcuSyn (Biosoft) software using the median effects methods as described by Chou and Talalay, CI values less than 0.7 indicated synergy, 0.7–0.9 weak synergy, 0.9–1.1 additivity, 1.1–1.45 indicated weak antagonism and greater than 1.45 antagonism.

In test [3] the test system is M296 melanoma cells. As to the kind of experiment: Cell viability assay (CellTiter-Glo). The settings on record: Homo sapiens, 72 hours treatment. Format: cell-based. On the procedure: as §1, §2
On the technique in general: Cellular ATP, detected with luciferase, serves as a proxy for viable cell number.

Test [4] has as its system SKmel28 melanoma cells. As to the kind of experiment: Cell viability assay (CellTiter-Glo). The class given is cell-based. The settings on record: Homo sapiens, SK-MEL-28, 72 hours treatment. On the procedure: as §1, §2
The subject of test [5] is A375 melanoma cells. In words: Cell viability assay (CellTiter-Glo). The class given is cell-based. The following applies: Homo sapiens, A-375, 72 hours treatment. On the procedure:
as §1, §2

Test [6] deals with rhabdomyosarcoma cells (RD-1). As to the kind of experiment: Cell viability assay (CellTiter-Glo). The class given is cell-based. The following applies: Homo sapiens, RD1, 72 hours treatment. On the procedure:
as §1, §2

Test [7] relates to Human embryonic kidney cells (HEK-293). As to the kind of experiment: Cell viability assay (CellTiter-Glo). The settings on record: HEK293, 72 hours treatment. The class given is cell-based. On the procedure:
as §1, §2

In test [8] the test system is M229 melanoma cells. In words: Cell viability assay (CellTiter-Glo). The class given is cell-based. The following applies: Homo sapiens, 72 hours treatment. On the procedure: as §1, §2
Test [9] deals with M285 melanoma cells. As to the kind of experiment: Cell viability assay (CellTiter-Glo). Format: cell-based. The following applies: Homo sapiens, 72 hours treatment. On the procedure: as §1, §2
Test [10] has as its system M375 melanoma cells. In words: Cell viability assay (CellTiter-Glo). The class given is cell-based. The settings on record: Homo sapiens; M375; 72 hours treatment. On the procedure:
as §1, §2

Test [11] relates to Primary human melanocytes adult (HEMa-LP). As to the kind of experiment: Cell viability assay (CellTiter-Glo). Format: cell-based. The following applies: Melanocyte, 72 hours treatment. On the procedure:
as §1, §2

In test [12] the test system is M375 melanoma tumors. As to the kind of experiment: Mouse xenograft study. Format: in vivo. The following applies: M375 xenograft in SCID mice, selumetinib 30 mg/kg OG. On the procedure: 8–10-week-old female severe immunodeficiency (SCID) mice were purchased from Charles River Laboratories. All procedures were performed under UK Home Office approved protocols and the University of East Anglia local guidelines. Experiments were conducted strictly in accordance with the locally approved animal handling protocol.
A total of 3 × 10^6 M375 melanoma cells were injected subcutaneously into 40 SCID mice. After approximately 4 weeks when the tumors were palpable, the mice were randomized into 4 arms. The 4 arms were; vehicle alone, leflunomide alone, selumetinib alone and leflunomide and selumetinib in combination. There were 10 mice in each arm. The drug regime was administered for 12 days. Leflunomide was administered by intraperitoneal (IP) injection daily at 7.5 mg/kg. Selumetinib was administered by oral gavage (OG) twice daily at 30 mg/kg for the first two days and was then delivered once daily thereafter. The tumor volume was measured every three days with calipers. Tumor volume was measured by the formula 0.52 (length × width^2). At the end of the experiment, the mice were culled and the excised tumors were weighed.

With `Cc1oncc1C(=O)Nc1ccc(C(F)(F)F)cc1` [Leflunomide, leflunomide], the “number of BrdU positive (proliferating) cells” value in [1] is listed as “dose-dependent decrease”. Also, the IC50 in [2] was found to be 68.1 µM; in test [3], 112 µM; in test [4] it was 167 µM; in test [5], 57.4 µM; in test [6], 84.2 µM; in [7], 48.1 µM. Moreover, the IC50 in [8] was 58.2 µM; in [9], 61.5 µM; in [10] it was 64.1 µM; in test [11], 148 µM. Besides, the tumor volume result in [12] (12 days, leflunomide 7.5 mg/kg IP daily, vs vehicle control) is recorded as “did not reduce tumor volume”. Besides, the tumor weight entry in test [12] (excised at end of 12-day treatment, leflunomide 7.5 mg/kg IP) is listed as “did not reduce the tumor volume or weight”.
